# Data reported in patent US10568840B2, “Self assembled gels for controlled delivery of encapsulated agents to cartilage” (The Brigham and Women's Hospital, Inc., priority 2016, dated 2020).
# Tests used:
# [1] = Log P of GRAS amphiphiles; format: physicochemical; settings: GRAS amphiphile alone
# Source text: (log P is the partition coefficient of a molecule between an aqueous and lipophilic phases, usually octanol and water; commonly used as a measure of lipophilicity of a compound.)
# [2] = In vitro release of L-006235 from SP and SP-DOTAP hydrogel (dialysis, HPLC); format: physicochemical; settings: from hydrogel in PBS at 37° C.; in 7 days
# Procedure: SP-DOTAP gel was assayed for its ability to retain the encapsulated Cathepsin-K inhibitor, L-006235, loaded at 10% (w/w). In vitro release of L-006235 from SP-only hydrogel and from SP-DOTAP hydrogel was evaluated in PBS at 37° C. Drug-loaded hydrogels (200 μL, 10 mg drug/mL) further suspended in PBS (800 μl) were placed in dialysis tubing (8-10 kD molecular weight cut-off, Spectrum Labs). The dialysis bags filled with hydrogel in the suspension medium were placed in a 40 mL sink medium (PBS), and incubated at 37° C. with a shaking speed of 150 rpm. At each time point, an aliquot (1 ml) from the sink medium was removed and replenished with the same volume of fresh PBS to ensure constant sink conditions. Aliquots were lyophilized and dissolved in 250 μL methanol, followed by high performance liquid chromatography (HPLC) analysis of the drug amount.
Log P ([1]; Table 1),"logP ([1]; aqueous and lipophilic phases, usually octanol and water, Table 1)",cumulative release of L-006235 [2],Molecule,Log P ([1]; Table 2)
1.416,,,sucrose stearate [SS],
0.64,,,sucrose palmitate [SP],0.64
,,less than 10%,CN1CCN(c2nc(-c3ccc(C(=O)NC4(C(=O)NCC#N)CCCCC4)cc3)cs2)CC1 [L-006235],

# Continued, molecule first:
Molecule,Log P ([1]; Table 1),"logP ([1]; aqueous and lipophilic phases, usually octanol and water, Table 1)",cumulative release of L-006235 [2],Log P ([1]; Table 2)
"CCCCCCCCCCCCCCCC(=O)OC[C@H](O)[C@H]1OC(=O)C(O)=C1O [AP, ascorbyl palmitate]",,4.62,,
triglycerol monostearate [TG18],3.899,,,3.899
